The target of this experiment is T1, Recombinant human ASK1 kinase (Homo sapiens, UniProt Q99683).
T1 construct: purchased Invitrogen Inc
T1 sequence (Q99683 1-1374): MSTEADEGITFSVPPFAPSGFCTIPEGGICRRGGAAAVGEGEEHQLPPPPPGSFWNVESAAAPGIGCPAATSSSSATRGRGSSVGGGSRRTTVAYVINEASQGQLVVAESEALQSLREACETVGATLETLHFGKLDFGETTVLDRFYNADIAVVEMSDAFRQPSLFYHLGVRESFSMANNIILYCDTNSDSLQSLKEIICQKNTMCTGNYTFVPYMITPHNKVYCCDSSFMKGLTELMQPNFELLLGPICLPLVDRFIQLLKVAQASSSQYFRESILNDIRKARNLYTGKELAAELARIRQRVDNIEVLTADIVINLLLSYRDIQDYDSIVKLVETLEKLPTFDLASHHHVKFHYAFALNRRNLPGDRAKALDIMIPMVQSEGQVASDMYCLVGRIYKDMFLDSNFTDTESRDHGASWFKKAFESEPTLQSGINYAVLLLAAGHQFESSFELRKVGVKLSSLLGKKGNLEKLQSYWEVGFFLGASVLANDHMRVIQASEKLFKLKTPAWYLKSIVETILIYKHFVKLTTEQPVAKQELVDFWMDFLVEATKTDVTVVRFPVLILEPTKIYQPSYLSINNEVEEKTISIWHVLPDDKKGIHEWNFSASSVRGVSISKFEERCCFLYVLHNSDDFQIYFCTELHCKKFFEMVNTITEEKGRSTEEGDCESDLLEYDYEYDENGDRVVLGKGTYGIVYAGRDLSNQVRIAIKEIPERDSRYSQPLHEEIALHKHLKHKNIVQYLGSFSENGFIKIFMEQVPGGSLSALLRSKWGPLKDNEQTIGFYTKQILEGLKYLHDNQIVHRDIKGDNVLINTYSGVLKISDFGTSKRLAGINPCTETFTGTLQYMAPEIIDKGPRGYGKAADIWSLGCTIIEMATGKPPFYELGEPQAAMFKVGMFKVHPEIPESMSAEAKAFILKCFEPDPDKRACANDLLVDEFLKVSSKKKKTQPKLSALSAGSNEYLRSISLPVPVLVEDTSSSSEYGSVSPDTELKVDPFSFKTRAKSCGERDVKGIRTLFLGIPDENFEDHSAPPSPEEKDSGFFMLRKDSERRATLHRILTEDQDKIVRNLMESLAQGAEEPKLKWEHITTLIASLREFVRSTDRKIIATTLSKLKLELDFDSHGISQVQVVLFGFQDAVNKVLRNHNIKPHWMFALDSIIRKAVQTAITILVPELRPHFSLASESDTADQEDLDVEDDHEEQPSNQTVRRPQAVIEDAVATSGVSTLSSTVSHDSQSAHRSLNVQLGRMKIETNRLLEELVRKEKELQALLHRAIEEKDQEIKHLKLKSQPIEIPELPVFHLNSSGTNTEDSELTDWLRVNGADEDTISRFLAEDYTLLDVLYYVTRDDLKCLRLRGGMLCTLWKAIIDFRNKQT
The experiment is described as follows: ASK1 kinase HTRF assay (KinEASE-STK). The format is biochemical. To be noted: HTRF detection; 3 nM ASK1 kinase, 1 uM STK-substrate-biotin. Here is the method:
Reagents: Recombinant human ASK1 kinase was from Invitrogen Inc. HTRF KinEASE™-STK S3 kit was obtained from Cisbio (Bedford, Mass.). All other reagents were of the highest grade commercially available.
Assay: The assay measures the phosphorylation level of a biotinylatd peptide substrate by the ASK1 kinase using HTRF detection. ASK1 kinase assay is based on HTRF KinEASE™-STK manual from Cisbio. Test compound, 1 uM STK-substrate-biotin, 3 nM of ASK1 kinase are incubated with 1*Kinase buffer with 5 mM MgCl2 and 1 mM DTT. 250 nM Sa-XL 665(4*) and STK-antibody-Cryptate work solution are added to stop the reaction and phosphorylated peptide substrate is detected using Envision 2104 Multilabeled reader from PerkinElmer. The fluorescence is measured at 615 nm (Cryptate) and 665 nm (XL665) and a ratio of 665 nm/615 nm is calculated for each well. The resulting TR-FRET level (a ratio of 665 nm/615 nm) is proportional to the phosphorylation level of substrate.
On the technique in general: TR-FRET usually uses a lanthanide donor and a delayed reading to cut background.
For orientation: EC50 means the concentration needed to bring the measured effect to its halfway point. In the case of `Cc1ccc(-c2cnc(-c3cccc(-c4nncn4C(C)CO)n3)o2)c(F)c1` (stereo not shown) [Compound I-001, 2-(3-(6-(5-(2-Fluoro-4-methylphenyl)oxazol-2-yl)pyridin-2-yl)-4H-1,2,4-triazol-4-yl) propan-1-ol], the EC50 was at most 50 nM.
For `CC(C)n1cnnc1-c1cccc(-c2ncc(-c3ccccc3)o2)n1` [Compound I-002, 2-(5-Phenyl-1,3-oxazol-2-yl)-6-[4-(propan-2-yl)-4H-1,2,4-triazol-3-yl] pyridine], the EC50 is at most 50 nM.
In the case of `Cc1ccc(-c2cnc(-c3cccc(-c4nncn4C(C)C)n3)s2)c(F)c1` [Compound I-003, 5-(2-Fluoro-4-methylphenyl)-2-(6-(4-isopropyl-4H-1,2,4-triazol-3-yl)pyridin-2-yl)thiazole] it was 50 to 500 nM; in that of `CC(CO)n1cnnc1-c1cccc(-c2ncc(-c3ccccc3)o2)n1` (stereo not shown) [Compound I-004, 2-(3-(6-(5-Phenyloxazol-2-yl)pyridin-2-yl)-4H-1,2,4-triazol-4-yl) propan-1-ol], at most 50 nM.
In the case of `CC(C)n1cnnc1-c1cccc(-c2ncc(-c3cccc(N4CCC(O)C4)c3)o2)n1` (stereo not shown) [Compound I-005, 1-[3-(2-[6-[4-(Propan-2-yl)-4H-1,2,4-triazol-3-yl]pyridin-2-yl]-1,3-oxazol-5-yl)phenyl]pyrrolidin-3-ol] it was at most 50 nM; in that of `CC(C)n1cnnc1-c1cccc(-c2ncc(-c3cccc(C(=O)Nc4ccccc4)c3)o2)n1` [Compound I-006, N-Phenyl-3-(2-[6-[4-(propan-2-yl)-4H-1,2,4-triazol-3-yl]pyridin-2-yl]-1,3-oxazol-5-yl)benzamide], 50 to 500 nM.
Under `CC(C)n1cnnc1-c1cccc(-c2ncc(-c3cccc(C(=O)O)c3)o2)n1` [Compound I-008, 3-(2-[6-[4-(Propan-2-yl)-4H-1,2,4-triazol-3-yl]pyridin-2-yl]-1,3-oxazol-5-yl)benzoic acid] stands 50 to 500 nM; under `CC(C)n1cnnc1-c1cccc(-c2ncc(-c3cccc(C(N)=O)c3)o2)n1` [Compound I-009, 3-(2-[6-[4-(Propan-2-yl)-4H-1,2,4-triazol-3-yl]pyridin-2-yl]-1,3-oxazol-5-yl)benzamide], 50 to 500 nM.
Regarding `CCN1CCN(c2cccc(-c3cnc(-c4cccc(-c5nncn5C(C)C)n4)o3)c2)CC1` [Compound I-010, 5-(3-(4-Ethylpiperazin-1-yl)phenyl)-2-(6-(4-isopropyl-4H-1,2,4-triazol-3-yl)pyridin-2-yl)oxazole], the EC50 is at most 50 nM.
With `CC(=O)N1CCN(c2cccc(-c3cnc(-c4cccc(-c5nncn5C(C)C)n4)o3)c2)CC1` [Compound I-011, 1-(4-(3-(2-(6-(4-Isopropyl-4H-1,2,4-triazol-3-yl)pyridin-2-yl)oxazol-5-yl)phenyl)piperazin-1-yl)ethenone], the EC50 is at most 50 nM.
Under `CC(C)n1cnnc1-c1cccc(-c2ncc(-c3cccc(N4CCN(CCO)CC4)c3)o2)n1` [Compound I-012, 2-(4-(3-(2-(6-(4-Isopropyl-4H-1,2,4-triazol-3-yl)pyridin-2-yl)oxazol-5-yl)phenyl)piperazin-1-yl)ethanol] stands at most 50 nM; under `Cc1ccccc1-c1cnc(-c2cccc(-c3nncn3[C@H](C)CN)n2)o1` [Compound I-013, (R)-2-(3-(6-(5-o-Tolyloxazol-2-yl)pyridin-2-yl)-4H-1,2,4-triazol-4-yl)propan-1-amine], 500 to 5000 nM.
`CC(C1CC1)n1cnnc1-c1cccc(-c2ncc(-c3ccccc3)o2)n1` (stereo not shown) [Compound I-015, 2-(6-(4-(1-Cyclopropylethyl)-4H-1,2,4-triazol-3-yl)pyridin-2-yl)-5-phenyloxazole]: the concentration for a half-maximal effect (EC50) was at most 50 nM.
Turning to `CC(C)n1cnnc1-c1cccc(-c2ncc(C3CCCCC3)o2)n1` [Compound I-016, 5-Cyclohexyl-2-(6-(4-isopropyl-4H-1,2,4-triazol-3-yl)pyridin-2-yl) oxazole], the EC50 lay in the range of 50 to 500 nM.
Take `c1ccc(-c2cnc(-c3cccc(-c4nncn4C4CC4)n3)o2)cc1` [Compound I-017]: the EC50 lay in the range of 50 to 500 nM.
`C[C@H](CO)n1cnnc1-c1cccc(-c2ncc(-c3ccccc3)o2)n1` [Compound I-018]: the EC50 was at most 50 nM.
With `C[C@@H](CO)n1cnnc1-c1cccc(-c2ncc(-c3ccccc3)o2)n1` [Compound I-019], the EC50 lay in the range of 50 to 500 nM.
Under `CC(C)n1cnnc1-c1cccc(-c2ncc(-c3ccncc3)o2)n1` [Compound I-021] stands 50 to 500 nM.
In the case of `Cc1ccccc1-c1cnc(-c2cccc(-c3nncn3C(C)C)n2)o1` [Compound I-024] it was at most 50 nM; in that of `Cc1ccccc1-c1cnc(-c2cccc(-c3nncn3[C@H](C)CO)n2)o1` [Compound I-025], at most 50 nM; in that of `CCC(C)n1cnnc1-c1cccc(-c2ncc(-c3ccccc3C)o2)n1` (stereo not shown) [Compound I-026], 50 to 500 nM.
In the case of `Cc1ccccc1-c1cnc(-c2cccc(-c3nncn3C(C)C(F)(F)F)n2)o1` (stereo not shown) [Compound I-027], the EC50 is at most 50 nM.
On to `Cc1cccc(-c2cnc(-c3cccc(-c4nncn4C(C)C)n3)o2)c1` [Compound I-028], for which the EC50 was in the range of 50 to 500 nM.
Regarding `Cc1ccc(-c2cnc(-c3cccc(-c4nncn4C(C)C)n3)o2)cc1` [Compound I-029], the EC50 was at most 50 nM.
As to `Cc1ccc(-c2cnc(-c3cccc(-c4nncn4[C@H](C)CO)n3)o2)cc1` [Compound I-030], the EC50 is at most 50 nM.
Under `Cc1ccc(-c2cnc(-c3cccc(-c4nncn4C(C)C)n3)o2)c(C)c1` [Compound I-031] stands at most 50 nM; under `Cc1ccc(-c2cnc(-c3cccc(-c4nncn4[C@H](C)CO)n3)o2)c(C)c1` [Compound I-032], at most 50 nM.
Under `Cc1cc(C)c(-c2cnc(-c3cccc(-c4nncn4[C@H](C)CO)n3)o2)c(C)c1` [Compound I-033] stands 50 to 500 nM.
Under `CC(C)c1cccc(-c2cnc(-c3cccc(-c4nncn4C(C)C)n3)o2)c1` [Compound I-034] stands 50 to 500 nM.
On to `CC(C)c1ccc(-c2cnc(-c3cccc(-c4nncn4C(C)C)n3)o2)cc1` [Compound I-035], for which the EC50 fell in the range of 50 to 500 nM.
Under `CCc1ccc(-c2cnc(-c3cccc(-c4nncn4C(C)C)n3)o2)cc1` [Compound I-036] stands 50 to 500 nM; under `CCc1cccc(-c2cnc(-c3cccc(-c4nncn4C(C)C)n3)o2)c1` [Compound I-037], 50 to 500 nM.
`CCc1ccccc1-c1cnc(-c2cccc(-c3nncn3C(C)C)n2)o1` [Compound I-038]: the EC50 is at most 50 nM.
Consider `CC(C)n1cnnc1-c1cccc(-c2ncc(-c3ccc(C4CC4)cc3)o2)n1` [Compound I-039], for which the EC50 is 50 to 500 nM.
In the case of `CC(C)n1cnnc1-c1cccc(-c2ncc(-c3cccc(C4CC4)c3)o2)n1` [Compound I-040] it was at most 50 nM; in that of `Cc1ccc(-c2cnc(-c3cccc(-c4nncn4C(C)C)n3)o2)c(F)c1` [Compound I-041], at most 50 nM; in that of `Cc1ccc(-c2cnc(-c3cccc(-c4nncn4[C@H](C)CO)n3)o2)c(F)c1` [Compound I-042], at most 50 nM.
Take `Cc1ccc(-c2cnc(-c3cccc(-c4nncn4[C@@H](C)CO)n3)o2)c(F)c1` [Compound I-043]: the EC50 lay within 50 to 500 nM.
Under `Cc1cccc(F)c1-c1cnc(-c2cccc(-c3nncn3C(C)C)n2)o1` [Compound I-044] stands 50 to 500 nM; under `CC(C)n1cnnc1-c1cccc(-c2ncc(-c3ccc(C(C)(C)C)cc3F)o2)n1` [Compound I-045], 50 to 500 nM.

The values are drawn from patent publication US20210179600A1, “OXAZOLE AND THIAZOLE DERIVATIVES AS INHIBITORS OF ASK1” (Hepagene Therapeutics (HK) Limited, priority 2017, published 2021).
